The text below walks through data of US9856216B2, “Compounds as TNIK, IKKε and TBK1 inhibitors and pharmaceutical composition comprising same” (GREEN CROSS CORPORATION, priority 2015, dated 2018).

The structures appear in SMILES notation.

The target of the first experiment is T1, TNIK (Homo sapiens, UniProt Q9UKE5).
T1 construct: purchased Promega V4158
T1 sequence (Q9UKE5 1-367 limits assumed): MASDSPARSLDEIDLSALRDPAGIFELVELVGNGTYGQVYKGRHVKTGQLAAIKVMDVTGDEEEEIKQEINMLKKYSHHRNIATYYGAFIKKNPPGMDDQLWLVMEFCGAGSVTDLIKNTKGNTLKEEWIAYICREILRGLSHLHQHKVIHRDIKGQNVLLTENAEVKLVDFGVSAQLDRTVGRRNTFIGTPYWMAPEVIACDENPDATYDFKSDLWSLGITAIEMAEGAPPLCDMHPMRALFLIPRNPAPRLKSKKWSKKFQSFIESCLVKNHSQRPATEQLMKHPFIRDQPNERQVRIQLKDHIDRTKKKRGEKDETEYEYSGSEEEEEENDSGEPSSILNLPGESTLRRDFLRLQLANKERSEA
As to the kind of experiment: ADP-Glo Kinase Assay, inhibition activity on TNIK.
Conditions: not given
The format is biochemical. The procedure:
The inhibition activities on TNIK, IKKε and TBK1 were measured by a luminometer, TNIK/IKKε/TBK1 Kinase Enzyme System (Promega, Ca# V4158; Invitrogen, PR8031B, Promega, Ca# V3991) and ADP-Glo Kinase Assay using ADP-Glo™ Kinase Analysis Kit (Promega, Ca# V9101) and a kinase reaction buffer [40 mM Tris(pH 7.5), 20 mM MgCl2, 0.1 mg/mL BSA] in accordance with the manufacturer's protocol.
On the technique in general: ADP-Glo turns the ADP formed in a reaction into a luminescent signal.
On to `CC(=O)c1ccc(-c2ccc(NC(=O)c3ccccc3)c3c2CNC3=O)cc1` [Example 13, N-(7-(4-acetylphenyl)-3-oxoisoindolin-4-yl)benzamide], for which the “TNIK (μM)” value is “Insoluble”.

Still in this experiment, the particulars now being: TNIK (μM).
On to `O=C1NCc2c(-c3ccccc3)ccc(NCCCl)c21` [Example 253, 7-((2-Chloroethyl)amino)-4-phenylisoindolin-1-one], for which the IC50 was 2.6 µM.

Staying with this experiment, now noted: read-out: TNIK.
Turning to `COc1ccccc1-c1ccc(NC(=O)c2ccc(NCCN3CCCC3)cc2)c2c1CCNC2=O` [Example 402, N-(5-(2-methoxyphenyl)-1-oxo-1,2,3,4-tetrahydroisoquinolin-8-yl)-4-((2-(pyrrolidin-1-yl)ethyl)amino)benzamide], the IC50 was 2.38 µM.
Turning to `CN1CCN(CCNc2ccc(-c3ccccc3)c3c2C(=O)NC3)CC1` [Example 258, 7-((2-(4-Methylpiperazin-1-yl)ethyl)amino)-4-phenylisoindolin-1-one], the IC50 was over 20 µM.
Same read-out and setting: with `CCCOc1ccc(-c2ccc(NC(=O)c3ccccc3)c3c2CNC3=O)cc1` [Example 132, N-(3-oxo-7-(4-propoxyphenyl)isoindolin-4-yl)benzamide] the figure was over 20 µM; with `COc1cc(Cl)ccc1-c1ccc(NC(=O)c2ccccc2)c2c1CNC2=O` [Example 49, N-(7-(4-chloro-2-methoxyphenyl)-3-oxoisoindolin-4-yl) benzamide], over 20 µM.
The same measure, in the same setting: to `O=C(Nc1ccc(-c2ccccc2)c2c1C(=O)NC2)c1ccc(NCCCO)cc1` [Example 382, 4-((3-Hydroxypropyl)amino)-N-(3-oxo-7-phenylisoindolin-4-yl) benzamide] belongs 0.33 µM; to `COc1cccc(-c2ccc(NC(=O)c3ccc(NCCO)cc3)c3c2CNC3=O)c1OC` [Example 311, N-(7-(2,3-dimethoxyphenyl)-3-oxoisoindolin-4-yl)-4-((2-hydroxyethyl)amino)benzamide], 0.052 µM; to `O=C(Nc1ccc(-c2cccc(Cl)c2F)c2c1C(=O)NC2)c1ccccc1` [Example 50, N-(7-(3-chloro-2-fluorophenyl)-3-oxoisoindolin-4-yl)benzamide], over 20 µM.
Regarding `O=C(Nc1ccc(-c2cscn2)c2c1C(=O)NC2)c1ccccc1` [Example 52, N-(3-oxo-7-(thiazol-4-yl)isoindolin-4-yl)benzamide], the IC50 was 2.8 µM.
On the same count and under the same terms, with `CS(=O)(=O)c1ccccc1-c1ccc(NC(=O)c2ccccc2)c2c1CNC2=O` [Example 47, N-(7-(2-(methylsulfonyl)phenyl)-3-oxoisoindolin-4-yl) benzamide] the figure was over 20 µM; with `COCCCNc1ccc(C(=O)Nc2ccc(-c3ccco3)c3c2C(=O)NC3)cc1` [Example 336, N-(7-(furan-2-yl)-3-oxoisoindolin-4-yl)-4-((3-methoxypropyl)amino)benzamide], 0.98 µM; with `COc1cccc(-c2ccc(NC(=O)c3ccc(NCCN4CCN(C)CC4)cc3)c3c2CNC3=O)c1OC` [Example 314, N-(7-(2,3-dimethoxyphenyl)-3-oxoisoindolin-4-yl)-4-((2-(4-methylpiperazin-1-yl)ethyl)amino)benzamide], 0.086 µM.
On the same count and under the same terms, to `O=C(Nc1ccc(Nc2cccc(Cl)c2)c2c1C(=O)NC2)c1ccc(NCCCN2CCCC2)cc1` [Example 457, N-(7-((3-chlorophenyl)amino)-3-oxoisoindolin-4-yl)-4-((3-(pyrrolidin-1-yl)propyl)amino)benzamide] belongs 0.15 µM.
The same measure, in the same setting: with `O=C(Nc1ccc(-c2cncs2)c2c1C(=O)NC2)c1ccccc1` [Example 51, N-(3-oxo-7-(thiazol-5-yl)isoindolin-4-yl)benzamide] the figure was 0.44 µM; with `CC(C)(C)OC(=O)N1CCN(Cc2ccc(-c3ccc(NC(=O)c4ccccc4)c4c3CNC4=O)s2)CC1` [Example 198, tert-Butyl 4-((5-(7-benzamido-1-oxoisoindolin-4-yl)thiophen-2-yl)methyl)piperazine-1-carboxylate], over 20 µM; with `COc1cccc(-c2ccc(NC(=O)c3ccc(N4CCOCC4)cc3)c3c2CNC3=O)c1OC` [Example 312, N-(7-(2,3-dimethoxyphenyl)-3-oxoisoindolin-4-yl)-4-morpholinobenzamide], 0.73 µM.
As to `O=C(Nc1ccc(-c2ccc(F)cc2)c2c1C(=O)NC2)c1ccccc1` [Example 205, N-(7-(4-fluorophenyl)-3-oxoisoindolin-4-yl)benzamide], the IC50 is over 20 µM.
As for `COc1cccc(-c2ccc(NC(=O)c3ccc(NCCCN4CCN(C)CC4)cc3)c3c2CNC3=O)c1OC` [Example 316, N-(7-(2,3-dimethoxyphenyl)-3-oxoisoindolin-4-yl)-4-((3-(4-methylpiperazin-1-yl)propyl)amino)benzamide], the IC50 was determined as 0.057 µM.
Still for that read-out and setting: with `O=C(Nc1ccc(-c2ccccc2)c2c1C(=O)NC2)c1ccc(NCCN2CCOCC2)cc1` [Example 322, 4-((2-Morpholinoethyl)amino)-N-(3-oxo-7-phenylisoindolin-4-yl)benzamide] the figure was 0.34 µM; with `O=C(Nc1ccc(-c2ccccc2F)c2c1C(=O)NC2)c1ccccc1` [Example 149, N-(7-(2-fluorophenyl)-3-oxoisoindolin-4-yl)benzamide], 3.8 µM; with `COc1cccc(OC)c1-c1ccc(NC(=O)c2ccccc2)c2c1CNC2=O` [Example 187, N-(7-(2,6-dimethoxyphenyl)-3-oxoisoindolin-4-yl)benzamide], 2.2 µM.
Same read-out and setting: with `O=C(Nc1ccc(Nc2cc[nH]n2)c2c1C(=O)NC2)c1ccc(F)cc1` [Example 437] the figure was 2.9 µM; with `COc1ccccc1-c1ccc(NC(=O)c2ccc(NCCCN3CCN(C)CC3)cc2)c2c1CNC2=O` [Example 330, N-(7-(2-methoxyphenyl)-3-oxoisoindolin-4-yl)-4-((3-(4-methylpiperazin-1-yl)propyl)amino)benzamide], 0.51 µM.
The same measure, in the same setting: to `CCCCNC(=O)Nc1ccc(-c2ccccc2)c2c1C(=O)NC2` [Example 229, 1-Butyl-3-(3-oxo-7-phenylisoindolin-4-yl)urea] belongs 1.1 µM; to `COc1cccc(C(=O)Nc2ccc(-c3ccccc3)c3c2C(=O)NC3)c1` [Example 202, 3-Methoxy-N-(3-oxo-7-phenylisoindolin-4-yl)benzamide], over 20 µM.
Consider `O=C(Nc1ccc(Nc2ccc(F)cc2)c2c1C(=O)NC2)c1ccccc1` [Example 414, N-(7-((4-fluorophenyl)amino)-3-oxoisoindolin-4-yl)benzamide], for which the IC50 was found to be 0.55 µM.
On the same count and under the same terms, with `COc1ccccc1-c1ccc(NC(=O)c2ccc(NC(C)=O)cc2)c2c1CNC2=O` [Example 138, 4-Acetamido-N-(7-(2-methoxyphenyl)-3-oxoisoindolin-4-yl) benzamide] the figure was 0.2 µM; with `Nc1ccc(-c2ccccc2)c2c1C(=O)N(C(=O)NC1CCCCC1)C2` [Example 246, 7-Amino-N-cyclohexyl-1-oxo-4-phenylisoindolin-2-carboxamide], over 20 µM; with `Cc1cccc(Nc2ccc(NC(=O)c3ccc(F)cc3)c3c2CNC3=O)c1C` [Example 424, N-(7-((2,3-dimethylphenyl)amino)-3-oxoisoindolin-4-yl)-4-fluorobenzamide], 1.35 µM.
On the same count and under the same terms, to `COc1cccc(-c2ccc(NC(=O)c3ccc(NCCCN4CCCC4)cc3)c3c2CNC3=O)c1OC` [Example 280, N-(7-(2,3-dimethoxyphenyl)-3-oxoisoindolin-4-yl)-4-((3-(pyrrolidin-1-yl)propyl)amino)benzamide] belongs 0.073 µM.
